Consider 13 molecules from PubChem BioAssay (NCI).

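Interpolation was linear, between the two tested concentrations surrounding the appropriate level; five concentrations were tested over 48 hours in 96-well plates. TGI denotes the concentration required for complete inhibition of growth.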

Among the test systems are CCRF-CEM leukemia; HCC-2998 colon; K-562 leukemia; MDA-MB-231 breast; NCI-H226 lung; RXF 393 renal; SK-MEL-5 melanoma; SK-OV-3 ovarian; SNB-75 CNS; U251 CNS.
Experiment in all cases: NCI tumour cell line growth inhibition, 48 h

In the case of `Cc1cc(C)c2c(=O)n(CC(O)CN3CCN(c4ncccn4)CC3)sc2n1` (stereo not given), the TGI with CCRF-CEM leukemia is more than 100 µM; in the assay on HCC-2998 colon it was 32.9 µM; in the assay on K-562 leukemia, more than 100 µM; in the assay on MDA-MB-231 breast, 31.3 µM; in the assay with NCI-H226 lung, more than 100 µM; with RXF 393 renal, 33.6 µM. Further, the TGI with SK-MEL-5 melanoma was 35.5 µM; in the assay with SK-OV-3 ovarian, 32.8 µM; in the assay with SNB-75 CNS it was 28.4 µM; in the assay with U251 CNS, 31.7 µM.
Turning to `Nc1nc(-c2ccccc2)cc(-c2ccc(F)cc2)c1-c1ccc(Cl)cc1`, the TGI in the assay with CCRF-CEM leukemia, in the assay on HCC-2998 colon, in the assay with K-562 leukemia, in the assay on MDA-MB-231 breast, in the assay on NCI-H226 lung and in the assay on RXF 393 renal was more than 100 µM in each case. For the same molecule, the TGI with SK-MEL-5 melanoma, with SK-OV-3 ovarian, with SNB-75 CNS and in the assay with U251 CNS was more than 100 µM in each case.
For `CCOC(=O)Cn1c(=O)c2cc(C)cc3c(Cl)nc4c(OC)c(OC)cc1c4c32`, the TGI in the assay on CCRF-CEM leukemia, in the assay with HCC-2998 colon, in the assay on K-562 leukemia, in the assay on MDA-MB-231 breast, in the assay on NCI-H226 lung and in the assay on RXF 393 renal was more than 100 µM in each case. Moreover, the TGI in the assay on SK-MEL-5 melanoma, with SK-OV-3 ovarian, in the assay on SNB-75 CNS and in the assay with U251 CNS was more than 100 µM each time.
On to `Cc1cc(S(=O)(=O)Nc2nc(N)n(-c3ccccc3)n2)c(S)cc1Cl`, for which the TGI in the assay with CCRF-CEM leukemia, in the assay on HCC-2998 colon, in the assay with K-562 leukemia, with MDA-MB-231 breast, in the assay on NCI-H226 lung and in the assay on RXF 393 renal was more than 100 µM in each case. Further, the TGI in the assay on SK-MEL-5 melanoma, with SK-OV-3 ovarian, in the assay on SNB-75 CNS and in the assay on U251 CNS was more than 100 µM each time.
On to `O=C(NCCc1ccc(F)cc1)c1cc(/C=C/c2cc(O)ccc2O)ccc1O`, for which the TGI is more than 100 µM in the assay with CCRF-CEM leukemia; 26 µM with HCC-2998 colon; more than 29.2 µM in the assay with K-562 leukemia; 10.5 µM with MDA-MB-231 breast; 29.5 µM in the assay on NCI-H226 lung; 4.4 µM with RXF 393 renal. In addition, the TGI in the assay on SK-MEL-5 melanoma turned out to be 6.35 µM; in the assay with SK-OV-3 ovarian, 27.9 µM; in the assay on SNB-75 CNS, 14.4 µM; in the assay on U251 CNS, 4.49 µM.
As for `O=c1[nH]/c(=C/c2cccs2)c(=O)[nH]/c1=C/c1ccc(OCc2ccccc2)cn1`, the TGI is 4.34 µM in the assay on CCRF-CEM leukemia; 0.853 µM with HCC-2998 colon; 27.4 µM in the assay with K-562 leukemia; more than 48.9 µM in the assay with MDA-MB-231 breast; 33.3 µM in the assay with NCI-H226 lung; 3.88 µM in the assay with RXF 393 renal. The TGI in the assay on SK-MEL-5 melanoma was more than 62.6 µM; with SK-OV-3 ovarian, 16.1 µM; in the assay with SNB-75 CNS, 2.66 µM; in the assay on U251 CNS it was 23.8 µM.
In the case of `CCOC(=O)C(C(N)=O)c1nc2cc([N+](=O)[O-])ccc2nc1/C=C(\O)c1ccc(C)cc1` (stereo not given), the TGI in the assay on CCRF-CEM leukemia is more than 100 µM; in the assay on HCC-2998 colon, 62.7 µM; in the assay on K-562 leukemia, 12.1 µM; in the assay on MDA-MB-231 breast it was 46.7 µM; with NCI-H226 lung, more than 100 µM; in the assay with RXF 393 renal, 37.1 µM. In addition, the TGI in the assay on SK-MEL-5 melanoma was more than 100 µM; in the assay with SK-OV-3 ovarian, 39.4 µM; with SNB-75 CNS, 42 µM; with U251 CNS, 33.5 µM.
Turning to `COC(=O)/C=C1\C(=O)N(C(C)=O)c2ccccc21`, the TGI with CCRF-CEM leukemia is 10.1 µM; with HCC-2998 colon, 31.4 µM; in the assay with K-562 leukemia, more than 96.5 µM; with MDA-MB-231 breast it was 21.3 µM; with NCI-H226 lung, 27.8 µM; with RXF 393 renal, 21.5 µM. Also, the TGI was 27.8 µM in the assay on SK-MEL-5 melanoma, 29.7 µM in the assay with SK-OV-3 ovarian, 28.4 µM in the assay on SNB-75 CNS and 37.2 µM in the assay with U251 CNS.
In the case of `COc1ccc(/C=C/C=C2C(=O)NC(=S)NC2=O)cc1`, the TGI with CCRF-CEM leukemia was 5.69 µM; with HCC-2998 colon, 21.3 µM; with K-562 leukemia, more than 31.9 µM; with MDA-MB-231 breast, 4.57 µM; with NCI-H226 lung it was 44.6 µM; with RXF 393 renal it was 16.8 µM. Besides, the TGI in the assay on SK-MEL-5 melanoma came to 26.1 µM; with SK-OV-3 ovarian, 33.2 µM; with SNB-75 CNS, 47.2 µM; in the assay on U251 CNS it was 5.1 µM.
For `Brc1ccc2c(c1)[C@H]1CCc3c([nH]c4ccccc34)[C@H]1N2`, the TGI came to 21.6 µM in the assay on CCRF-CEM leukemia; 25.5 µM with HCC-2998 colon; 39.8 µM in the assay on K-562 leukemia; 12.3 µM in the assay with MDA-MB-231 breast; 28.4 µM with NCI-H226 lung; 33.4 µM in the assay with RXF 393 renal. Further, the TGI in the assay on SK-MEL-5 melanoma turned out to be 12.1 µM; in the assay on SK-OV-3 ovarian, 27.5 µM; in the assay on SNB-75 CNS, 35.7 µM; in the assay with U251 CNS it was 21.7 µM.
In the case of `NCCCCN(CCCN)C(=O)OCc1ccccc1`, the TGI with CCRF-CEM leukemia, in the assay with HCC-2998 colon, with K-562 leukemia, in the assay with MDA-MB-231 breast, with NCI-H226 lung and in the assay on RXF 393 renal was more than 100 µM throughout. For the same molecule, the TGI with SK-MEL-5 melanoma, in the assay with SK-OV-3 ovarian, in the assay on SNB-75 CNS and in the assay on U251 CNS was more than 100 µM throughout.
On to `CS(=O)(=O)c1nc(-c2cc3c(c(S(C)(=O)=O)n2)CCC3)cc2c1CCC2`, for which the TGI in the assay on CCRF-CEM leukemia, with HCC-2998 colon, in the assay on K-562 leukemia, with MDA-MB-231 breast, with NCI-H226 lung and in the assay on RXF 393 renal was more than 100 µM throughout. The TGI was more than 100 µM in the assay with SK-MEL-5 melanoma, more than 100 µM with SK-OV-3 ovarian, 53.4 µM in the assay with SNB-75 CNS and more than 100 µM in the assay with U251 CNS.
In the case of `Cc1ccc(N=c2oc3c(ccc4ccccc43)nc2Nc2ccc(C)cc2)cc1`, the TGI with CCRF-CEM leukemia, in the assay with HCC-2998 colon, in the assay with K-562 leukemia, in the assay with MDA-MB-231 breast, in the assay with NCI-H226 lung and in the assay with RXF 393 renal was more than 100 µM in each case. For the same molecule, the TGI with SK-MEL-5 melanoma, in the assay on SK-OV-3 ovarian, in the assay with SNB-75 CNS and with U251 CNS was more than 100 µM each time.
